# Assay results from US10179771B2 (GALAPAGOS NV, priority 2014, dated 2019).
# Molecular target: T1, Recombinant human TYK2 catalytic domain (Homo sapiens, UniProt P29597)
# T1 construct: Recombinant human TYK2 catalytic domain (amino acids 871-1187; catalog number 08-147); purchased Carna biosciences 08-147
# T1 sequence (P29597 871-1187): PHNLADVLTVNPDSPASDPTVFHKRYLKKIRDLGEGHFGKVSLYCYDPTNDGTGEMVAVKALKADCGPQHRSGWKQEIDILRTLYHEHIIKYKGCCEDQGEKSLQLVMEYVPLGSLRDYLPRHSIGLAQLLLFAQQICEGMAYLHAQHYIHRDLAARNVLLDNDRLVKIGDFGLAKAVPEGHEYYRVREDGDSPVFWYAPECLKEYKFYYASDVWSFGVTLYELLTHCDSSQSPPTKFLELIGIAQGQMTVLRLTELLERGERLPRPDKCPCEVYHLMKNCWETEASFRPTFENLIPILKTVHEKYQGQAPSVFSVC
# Experiment: TYK2 inhibition assay
# Format: biochemical
# Conditions: Illustrative Compounds of the invention (Table XI)
# Procedure: Recombinant human TYK2 catalytic domain (amino acids 871-1187; catalog number 08-147) was purchased from Carna biosciences. 5 ng of TYK2 was incubated with 12.5 μg polyGT substrate (Sigma catalog number P0275) in kinase reaction buffer (25 mM Hepes pH 7.2, 50 mM NaCl, 0.5 mM EDTA, 1 mM DTT, 5 mM MnCl2, 10 mM MgCl2, 0.1% Brij-35, 0.1 μM non-radioactive ATP, 0.125 μCi ^33P-gamma-ATP (GE Healthcare, catalog number AH9968) final concentrations) with or without 5 μL containing test compound or vehicle (DMSO, 1% final concentration), in a total volume of 25 μL, in a polypropylene 96-well plate (Greiner, V-bottom). After 90 min at 30° C., reactions were stopped by adding 25 μL/well of 150 mM phosphoric acid. All of the terminated kinase reaction was transferred to prewashed (75 mM phosphoric acid) 96 well filter plates (Perkin Elmer catalog number 6005177) using a cell harvester (Perkin Elmer). Plates were washed 6 times with 300 μL per well of a 75 mM phosphoric acid solution and the bottom of the plates was sealed. 40 μL/well of Microscint-20 was added, the top of the plates was sealed and readout was performed using the Topcount (Perkin Elmer). Kinase activity was calculated by subtracting counts per min (cpm) obtained in the presence of a positive control inhibitor (10 μM staurosporine) from cpm obtained in the presence of vehicle. The ability of a test compound to inhibit this activity was determined as: Percentage inhibition=((cpm determined for sample with test compound present−cpm determined for sample with positive control inhibitor) divided by (cpm determined in the presence of vehicle−cpm determined for sample with positive control inhibitor))*100.
# Dose dilution series were prepared for the compounds enabling the testing of dose-response effects in the TYK2 assay and the calculation of the IC50 for each compound. Each compound was routinely tested at concentration of 20 μM followed by a 1/3 serial dilution, 8 points (20 μM-6.67 μM-2.22 μM-740 nM-247 nM-82 nM-27 nM-9 nM) in a final concentration of 1% DMSO. When potency of compound series increased, more dilutions were prepared and/or the top concentration was lowered (e.g. 5 μM, 1 μM).
row,IC50 [nM],Structure (SMILES)
1,0.1 to 50,"Cc1cc(C#N)ncc1Oc1cc(NC(=O)[C@H]2C[C@H]2F)c2ncn(C)c2c1 [Cpd 20, (1R,2R)-N-[6-[(6-cyano-4-methyl-3-pyridyl)oxy]-1-methyl-benzimidazol-4-yl]-2-fluoro-cyclopropanecarboxamide]"
2,0.1 to 50,"CN(c1cc(NC(=O)[C@H]2C[C@H]2F)c2ncn(C)c2c1)c1ccc(C#N)cc1F [Cpd 15, (1R,2R)-N-[6-(4-cyano-2-fluoro-N-methyl-anilino)-1-methyl-benzimidazol-4-yl]-2-fluoro-cyclopropanecarboxamide]"
3,0.1 to 50,"CCc1cc(C(N)=O)ncc1N(C)c1cc(NC(=O)C2CC2)c2ncn(C)c2c1 [Cpd 24, 5-((4-(cyclopropanecarboxamido)-1-methyl-1H-benzo[d]imidazol-6-yl)(methyl)amino)-4-ethylpicolinamide]"
4,0.1 to 50,"CCS(=O)(=O)c1ccc(N(C)c2cc(NC(=O)[C@H]3C[C@H]3F)c3ncn(C)c3c2)c(C)c1 [Cpd 27, (1R,2R)-N-[6-(4-ethylsulfonyl-N,2-dimethyl-anilino)-1-methyl-benzimidazol-4-yl]-2-fluoro-cyclopropanecarboxamide]"
5,100 to 500,"Cc1cc(C#N)ncc1Oc1cc(NC(=O)NC(C)C)c2ncn(C)c2c1 [Cpd 38, 1-[6-[(6-cyano-4-methyl-3-pyridyl)oxy]-1-methyl-benzimidazol-4-yl]-3-isopropyl-urea]"
6,0.1 to 50,"CCc1cc(C#N)cc(F)c1Nc1cc(NC(=O)C2CC2)c2ncn(C)c2c1 [Cpd 2, N-(6-(4-cyano-2-ethyl-6-fluorophenylamino)-1-methyl-1H-benzo[d]imidazol-4-yl)cyclopropanecarboxamide]"
7,0.1 to 50,"CCc1cc(C#N)ncc1N(C)c1cc(NC(=O)C2CC2)c2ncn(C)c2c1 [Cpd 1, N-(6-((6-cyano-4-ethylpyridin-3-yl)(methyl)amino)-1-methyl-1H-benzo[d]imidazol-4-yl)cyclopropanecarboxamide]"
8,0.1 to 50,"CN(c1cc(NC(=O)[C@H]2C[C@H]2F)c2ncn(C)c2c1)c1c(F)cc(C#N)cc1Cl [Cpd 11, (1R,2R)-N-[6-(2-chloro-4-cyano-6-fluoro-N-methyl-anilino)-1-methyl-benzimidazol-4-yl]-2-fluoro-cyclopropanecarboxamide]"
9,0.1 to 50,"CCc1cc(C#N)ccc1Oc1cc(NC(=O)[C@H]2C[C@H]2F)c2ncn(C)c2c1 [Cpd 10, (1R,2R)-N-[6-(4-cyano-2-ethyl-phenoxy)-1-methyl-benzimidazol-4-yl]-2-fluoro-cyclopropanecarboxamide]"
10,> 500,"Cc1cc(C#N)ncc1Oc1cc(NC(=O)N2CC(O)C2)c2ncn(C)c2c1 [Cpd 36, N-[6-[(6-cyano-4-methyl-3-pyridyl)oxy]-1-methyl-benzimidazol-4-yl]-3-hydroxy-azetidine-1-carboxamide]"
11,> 500,"Cc1cc(C#N)ncc1Oc1cc(N(C)C)c2ncn(C)c2c1 [Cpd 35, 5-[7-(dimethylamino)-3-methyl-benzimidazol-5-yl]oxy-4-methyl-pyridine-2-carbonitrile]"
